PubChem BioAssay (NCI)
Values joined by “and” are separate entries in the source; they are usually repeats but may differ in a detail not shown here. Equal values may be shown once.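 Following 48 hours of exposure in 96-well plates, responses at five concentrations were used to interpolate endpoints linearly. The concentration for 50% growth inhibition is given as GI50. The concentration for full growth arrest is given as TGI.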

Legend:
Test in all cases: NCI tumour cell line growth inhibition, 48 h
MDA-MB-231 breast = tested on: MDA-MB-231 breast
U251 CNS = tested on: U251 CNS
UO-31 renal = tested on: UO-31 renal
NCI/ADR-RES ovarian = tested on: NCI/ADR-RES ovarian
A549 NSCLC = tested on: A549 NSCLC
SR leukemia = tested on: SR leukemia
PC-3 prostate = tested on: PC-3 prostate
M14 melanoma = tested on: M14 melanoma
HT29 colon = tested on: HT29 colon
CAKI-1 renal = tested on: CAKI-1 renal

Row | SMILES | TGI (MDA-MB-231 breast) | TGI (U251 CNS) | TGI (UO-31 renal) | TGI (NCI/ADR-RES ovarian) | TGI (A549 NSCLC) | TGI (SR leukemia) | TGI (PC-3 prostate) | TGI (M14 melanoma) | TGI (HT29 colon) [µM] | TGI (CAKI-1 renal) | GI50 (MDA-MB-231 breast) | GI50 (U251 CNS) | GI50 (UO-31 renal) | GI50 (NCI/ADR-RES ovarian) | GI50 (A549 NSCLC) | GI50 (SR leukemia) | GI50 (PC-3 prostate) | GI50 (M14 melanoma) | GI50 (HT29 colon) | GI50 (CAKI-1 renal)
1 | NS(=O)(=O)c1cc2c(cc1Cl)NC(Cc1ccccc1)NS2(=O)=O (stereo not drawn) | > 100 µM | > 100 µM | > 100 µM | > 100 µM | > 100 µM | > 100 µM | > 100 µM | > 100 µM | > 100 | > 100 µM | – | – | – | – | – | – | – | – | – | –
2 | COc1cccc(C2C(C#N)=C(N)Oc3cc(N)ccc32)c1 (stereo not drawn) | 59.6 µM | – | > 100 µM | 4.38 µM | > 100 µM | > 100 µM | > 100 µM | > 100 µM | 5.03 | > 100 µM | 1.29 µM | 0.369 µM | 0.858 µM | 0.346 µM | 0.572 µM | 0.3 µM | 0.509 µM | 0.341 µM | 0.36 µM | 0.47 µM
3 | CN(C)c1ccc(C(=C2C=CC(=[N+](C)C)C=C2)c2ccc(N(C)C)cc2)cc1 (tested in a mixture with another compound) | 1.03 µM | 1.34 µM | 1.39 µM | – | 0.688 µM | 0.106 µM | 1.6 µM | – | > 100 | 1.38 µM | 0.205 µM | – | – | 0.912 µM | 0.0326 µM | 0.0313 µM | 0.0368 µM | 0.088 µM | 0.0411 µM | 0.276 µM
4 | COC(=O)c1ccc2c(c1)nc(-c1cc3ccccc3[nH]c1=O)n2-c1cc(C(C)(C)C)[nH]n1 | > 100 µM | > 100 µM | > 100 µM | > 100 µM | > 100 µM | > 100 µM | > 100 µM | – | > 100 | > 95.1 µM | 4.13 µM | 0.987 µM | 0.526 µM | 2.97 µM | > 100 µM | 12.8 µM | 2.27 µM | – | 1.34 µM | 1.24 µM
5 | CCOc1ccc([C@@H]2[C@@H](Oc3ccccc3)C(=O)N2c2cc(OC)c(OC)c(OC)c2)cc1 | > 100 µM | > 100 µM | > 100 µM | > 100 µM | > 100 µM | > 100 µM | > 100 µM | > 100 µM | 0.522 | – | 0.177 µM | 0.0462 µM | 0.613 µM | 0.06 µM | 0.215 µM | 0.0483 µM | 0.0706 µM | 0.04 µM | 0.0491 µM | –
6 | CCCCCCCC/C=C/CCCCCCCCC1=NCCN1CCO | 4.19 µM | 3.67 µM | 3.75 µM | 38.4 µM | 7.41 µM | 4.95 µM | 9.14 µM | 5.11 µM | 5.21 | 14.8 µM | 1.99 µM | 1.78 µM | 1.76 µM | 8.44 µM | 2.67 µM | 1.9 µM | 2.61 µM | 2.16 µM | 2.16 µM | 3.61 µM
7 | CCCCCCCCCCCCCCCCCC1=NCCN1CS(=O)(=O)O | 23.7 µM | 29 µM | 23 µM | 35.3 µM | 31.2 µM | > 100 µM | 26.1 µM | 21 µM | 19.9 | 22.6 µM | 9.34 µM | 9.54 µM | 6.28 µM | 16.1 µM | 12.5 µM | 7.85 µM | 11.4 µM | 6.19 µM | 4.44 µM | 9.3 µM
8 | CN1CCCNc2c(c(=O)c2=O)NCCCN(C)CCCNc2c(c(=O)c2=O)NCCCN(C)CCCNc2c(c(=O)c2=O)NCCCN(C)CCCNc2c(c(=O)c2=O)NCCCN(C)CCCNc2c(c(=O)c2=O)NCCCN(C)CCCNc2c(c(=O)c2=O)NCCCN(C)CCCNc2c(c(=O)c2=O)NCCC1 | 19.1 µM | > 50 µM | 9.19 µM | 26.7 µM | > 50 µM | > 50 µM | 22.2 µM | 18.6 µM | > 50 | 13.1 µM | 4.42 µM | 2.23 µM | 2.01 µM | 5.96 µM | 6.05 µM | 12.1 µM | 7.02 µM | 6.86 µM | 9.87 µM | 6.14 µM
9 | CCC(C)n1cc(C)c2c(C(=O)NCc3c(C)cc(C)[nH]c3=O)cc(Br)cc21 (stereo not drawn) | > 100 µM | > 100 µM | > 100 µM | > 100 µM | > 100 µM | > 100 µM | 66.9 µM | > 100 µM | > 100 | > 100 µM | 45 µM | 62.8 µM | 70.5 µM | 33.8 µM | 39.7 µM | 32.9 µM | 19.1 µM | 35.2 µM | 41.5 µM | 94.1 µM
10 | ClC1=C(Cl)C(Cl)=C(Cl)C1=C/C=C/c1ccccc1 | > 100 µM | 1.37 µM | 0.756 µM | – | 1.24 µM | – | 2.65 µM | 0.882 µM | 1.16 | 0.561 µM | 0.344 µM | 0.346 µM | 0.201 µM | 0.393 µM | 0.339 µM | 0.138 µM | 0.276 µM | 0.279 µM | 0.319 µM | 0.198 µM
11 | CC(=O)N1CC(Nc2ccc(OC(F)(F)F)cc2)=CC1=O | – | > 100 µM | > 100 µM | 5.15 µM | > 100 µM | 52.2 µM | > 100 µM | 6.71 µM | 28.6 | > 100 µM | – | 3.34 µM | 19.4 µM | 0.781 µM | 2.01 µM | 0.532 µM | 2.99 µM | 0.535 µM | 0.482 µM | 3.05 µM
12 | CC(C)(C)[Si](C)(C)OCC1OC(n2cnc3c(NC(=O)c4ccccc4)ncnc32)CC1O (stereo not drawn) | 55.7 µM | 51.6 µM | 2.96 µM | 98.7 µM | > 100 µM | 49.6 µM | 95.5 µM | 38.5 µM | > 100 | > 100 µM | – | – | – | – | – | – | – | – | – | –
13 | CC1/C=C/C=C/C=C/C=C/C=C/C=C/C=C/C(O[C@@H]2O[C@H](C)[C@H](O)[C@@H](O)[C@@H]2N)CC(O)C(C(=O)O)C(O)CC(=O)CC(O)CC(O)CC(O)CC(=O)CCCC(=O)CC(=O)OC1C(C)CC(C)C(O)CC(=O)c1ccc(N)cc1 (stereo partly drawn) | 0.118 µM and 0.943 µM | 0.0996 µM and 0.49 µM | 0.0882 µM and 0.328 µM | 0.125 µM and 0.474 µM | 0.101 µM and 0.305 µM | 0.254 µM and 0.422 µM | 0.137 µM and 0.552 µM | 0.11 µM and 0.416 µM | – | 0.107 µM and 0.357 µM | 0.0613 µM and 0.3 µM | 0.0552 µM and 0.204 µM | 0.0456 µM and 0.159 µM | 0.0626 µM and 0.209 µM | 0.0561 µM and 0.169 µM | 0.0835 µM and 0.168 µM | 0.0646 µM and 0.222 µM | 0.0574 µM and 0.197 µM | 0.0585 µM and 0.345 µM | 0.0583 µM and 0.186 µM
14 | O=C1C(Br)=CC2(C=C1Br)CCN=c1c2c(O)c2nc3ccccc3c3ccnc1c23 | 12.1 µM | 7.04 µM | 1.55 µM | 29.2 µM | 28.4 µM | 5.83 µM | 5.27 µM | 8.73 µM | 3.02 | 3.29 µM | 3.59 µM | 1.67 µM | 0.761 µM | 2.04 µM | 6.69 µM | 0.195 µM | 1.44 µM | 1.73 µM | 1.07 µM | 1.01 µM
15 | COc1cc(NCCCCN=C(N)NC(N)=NC(C)C)c2ncccc2c1 | 17.8 µM | 21.1 µM | > 100 µM | > 100 µM | > 100 µM | 32.6 µM | 16.8 µM | 38.3 µM | 32.2 | > 100 µM | 1.94 µM | 5.65 µM | 99 µM | > 100 µM | 35.4 µM | 7.01 µM | 2.22 µM | 14.6 µM | 7.49 µM | > 100 µM
16 | CCN(CC)c1cc(/C=C/c2ccc(OC)c(OC)c2)nc2cc(F)c(F)cc12 | 7.47 µM | 4.98 µM | > 100 µM | > 100 µM | > 100 µM | 12.3 µM | > 100 µM | > 100 µM | – | > 100 µM | 2.3 µM | 2.18 µM | 38.7 µM | 7.52 µM | 30 µM | 3.15 µM | > 100 µM | 26.3 µM | – | 19 µM
17 | C1CCN(CCC2CCCCN2)CC1 (stereo not drawn) | > 100 µM | > 100 µM | – | > 100 µM | > 100 µM | > 100 µM | > 100 µM | > 100 µM | > 100 | > 100 µM | – | – | – | – | – | – | – | – | – | –
18 | CCOC(=O)c1sc2nc3sc(N=Nc4ccc(Cl)cc4)c(O)n3c(=S)c2c1C | – | > 100 µM | > 100 µM | 44.6 µM | > 100 µM | > 100 µM | > 100 µM | > 100 µM | > 100 | 57.3 µM | – | 29.1 µM | 53.6 µM | 17.4 µM | 35 µM | > 100 µM | 21.3 µM | 33.2 µM | 36.9 µM | 28.1 µM
19 | CSc1cnn(CCC#N)c(=O)n1 | > 100 µM | > 100 µM | > 100 µM | – | > 100 µM | > 100 µM | > 100 µM | > 100 µM | > 100 | > 100 µM | – | – | – | – | – | – | – | – | – | –
20 | O=C(OCc1ccccc1)N1CCN(/[N+]([O-])=N/Oc2ccc([N+](=O)[O-])cc2[N+](=O)[O-])CC1 | 9.48 µM | 27.1 µM | > 100 µM | > 100 µM | 56 µM | > 100 µM | 28.5 µM | – | > 100 | 15.9 µM | 3.58 µM | 4.85 µM | 3.82 µM | 5.25 µM | 21.5 µM | 4.7 µM | 14.2 µM | – | 10.4 µM | 4.8 µM
